Reference: the NIST ThermoML archive (doi:10.1021/je300670n)
Numbers after ± are expanded uncertainties.

How the values were obtained:
[1] = excess molar enthalpy (molar enthalpy of mixing); xn = mol fraction of the nth substance listed; conditions: 298.15 K, 101 kPa, Liquid, Flow calorimetry
[2] = xn = mol fraction of the nth substance listed; conditions: 101 kPa, Liquid, Vibrating tube method
[3] = Liquid; for mass density: 298.15 K, 101.33 kPa, Vibrating tube method; for vapor or sublimation pressure: Ebulliometric method (Recirculating still)
[4] = refractive index (Na D-line) (dimensionless); conditions: 101.33 kPa, Liquid, Standard Abbe refractometry

CCOC(C)(C)CC [1,1-dimethylpropyl ethyl ether] + CCC(C)(C)O
[1]
Conditions | excess molar enthalpy [kcal/mol]
x1 = 0.1005 | 0.0565 ± 0.00263
x1 = 0.2006 | 0.107 ± 0.00359
x1 = 0.3013 | 0.151 ± 0.0043
x1 = 0.4018 | 0.187 ± 0.00526
x1 = 0.5013 | 0.214 ± 0.00598
x1 = 0.601 | 0.23 ± 0.00621
x1 = 0.7003 | 0.232 ± 0.00621
x1 = 0.8011 | 0.215 ± 0.00598
x1 = 0.9003 | 0.159 ± 0.00478

[2]
Conditions | mass density [kg/m3]
297.7 K, x1 = 0.1005 | 798.8 ± 0.5
297.71 K, x1 = 0.2006 | 793.2 ± 0.5
297.71 K, x1 = 0.3013 | 788.2 ± 0.5
297.71 K, x1 = 0.4018 | 783.4 ± 0.4
297.71 K, x1 = 0.5013 | 778.9 ± 0.4
297.71 K, x1 = 0.601 | 774.7 ± 0.4
297.71 K, x1 = 0.7003 | 770.9 ± 0.4
297.71 K, x1 = 0.8011 | 767.1 ± 0.4
297.72 K, x1 = 0.9003 | 763.7 ± 0.5

CCC(C)O (configuration not stated) [butan-2-ol]
Conditions | mass density [kg/m3]
[3] | 802.71 ± 0.35

Conditions | refractive index | vapor or sublimation pressure [kPa]
[3], 330.11 K | – | 15.7 ± 0.4
[3], 337.99 K | – | 23.3 ± 0.4
[3], 345.15 K | – | 32.7 ± 0.4
[3], 354.49 K | – | 49.4 ± 0.4
[3], 357.15 K | – | 55.3 ± 0.4
[3], 358.16 K | – | 57.3 ± 0.4
[3], 358.98 K | – | 59.6 ± 0.4
[3], 362.88 K | – | 69.9 ± 0.4
[3], 365.08 K | – | 76.3 ± 0.5
[3], 366.13 K | – | 79.5 ± 0.5
[3], 367.13 K | – | 82.9 ± 0.5
[3], 371.51 K | – | 98.3 ± 0.4
[3], 372.43 K | – | 100.6 ± 0.4
[4], 298.15 K | 1.3951 ± 0.0003 | –

CCOC(C)(C)CC [1,1-dimethylpropyl ethyl ether] + CCCCO
[1]
Conditions | excess molar enthalpy [kcal/mol]
x1 = 0.101 | 0.0285 ± 0.00151
x1 = 0.2005 | 0.06 ± 0.00208
x1 = 0.3022 | 0.0905 ± 0.00263
x1 = 0.401 | 0.116 ± 0.00335
x1 = 0.5023 | 0.135 ± 0.00382
x1 = 0.6005 | 0.147 ± 0.00406
x1 = 0.7009 | 0.147 ± 0.00406
x1 = 0.7999 | 0.133 ± 0.00382
x1 = 0.902 | 0.0913 ± 0.00311

mass density [kg/m3], [2]
Conditions | x1 = 0.101 | x1 = 0.2005 | x1 = 0.3022 | x1 = 0.401 | x1 = 0.5023 | x1 = 0.6005 | x1 = 0.7009 | x1 = 0.7999 | x1 = 0.902
297.7 K | 801 ± 0.4 | 796.1 ± 0.4 | – | 786.6 ± 0.4 | 782 ± 0.4 | – | – | – | 764.8 ± 0.5
297.71 K | – | – | 791.1 ± 0.4 | – | – | 777.5 ± 0.4 | 773.3 ± 0.4 | 769.2 ± 0.4 | –

CCOC(C)(C)CC [1,1-dimethylpropyl ethyl ether]
Conditions | mass density [kg/m3]
[3] | 760.52 ± 0.34

Conditions | refractive index | vapor or sublimation pressure [kPa]
[3], 324.31 K | – | 17.7 ± 0.4
[3], 331.83 K | – | 24 ± 0.4
[3], 343.83 K | – | 37.6 ± 0.4
[3], 345.82 K | – | 40.3 ± 0.4
[3], 349.21 K | – | 45.4 ± 0.4
[3], 351.71 K | – | 49.5 ± 0.4
[3], 355.12 K | – | 55.5 ± 0.4
[3], 357.39 K | – | 59.9 ± 0.4
[3], 358.01 K | – | 61 ± 0.4
[3], 358.09 K | – | 61.3 ± 0.4
[3], 359.96 K | – | 65.1 ± 0.4
[3], 362.13 K | – | 69.7 ± 0.4
[3], 364.42 K | – | 74.9 ± 0.4
[3], 366.44 K | – | 79.6 ± 0.4
[3], 367.36 K | – | 81.8 ± 0.4
[3], 368.16 K | – | 83.8 ± 0.4
[3], 373.7 K | – | 98.9 ± 0.5
[3], 374.41 K | – | 101 ± 0.5
[4], 293.15 K | 1.39112 ± 0.00031 | –
[4], 298.15 K | 1.38858 ± 0.00031 | –

CCCCO [butan-1-ol]
Conditions | mass density [kg/m3]
[3] | 805.97 ± 0.34

Conditions | refractive index | vapor or sublimation pressure [kPa]
[3], 345.91 K | – | 15.6 ± 0.4
[3], 358.05 K | – | 27.4 ± 0.4
[3], 359.46 K | – | 29.4 ± 0.4
[3], 366.26 K | – | 39.3 ± 0.4
[3], 369.57 K | – | 45.1 ± 0.4
[3], 372.02 K | – | 49.8 ± 0.4
[3], 374.43 K | – | 54.9 ± 0.4
[3], 376.72 K | – | 60.1 ± 0.4
[3], 378.46 K | – | 64.2 ± 0.4
[3], 380.74 K | – | 70.2 ± 0.4
[3], 382.55 K | – | 75.1 ± 0.4
[3], 384.3 K | – | 80.1 ± 0.5
[3], 385.78 K | – | 84.6 ± 0.5
[3], 390.41 K | – | 100 ± 0.5
[4], 298.15 K | 1.3972 ± 0.0003 | –

CCOC(C)(C)CC [1,1-dimethylpropyl ethyl ether] + CCC(C)O
[1]
Conditions | excess molar enthalpy [kcal/mol]
x1 = 0.1011 | 0.0648 ± 0.00287
x1 = 0.2007 | 0.123 ± 0.00406
x1 = 0.3008 | 0.172 ± 0.00502
x1 = 0.4013 | 0.208 ± 0.00574
x1 = 0.5005 | 0.229 ± 0.00621
x1 = 0.6008 | 0.236 ± 0.00645
x1 = 0.7012 | 0.226 ± 0.00621
x1 = 0.8001 | 0.196 ± 0.00574
x1 = 0.899 | 0.133 ± 0.0043

[2]
Conditions | mass density [kg/m3]
297.67 K, x1 = 0.7012 | 770.2 ± 0.4
297.67 K, x1 = 0.8001 | 766.9 ± 0.4
297.68 K, x1 = 0.5005 | 777.9 ± 0.4
297.68 K, x1 = 0.6008 | 774 ± 0.4
297.68 K, x1 = 0.899 | 763.8 ± 0.5
297.69 K, x1 = 0.1011 | 796.8 ± 0.4
297.69 K, x1 = 0.2007 | 791.6 ± 0.4
297.69 K, x1 = 0.3008 | 786.6 ± 0.4
297.69 K, x1 = 0.4013 | 782 ± 0.4

CCC(C)(C)O [2-methylbutan-2-ol]
Conditions | mass density [kg/m3]
[3] | 805.29 ± 0.39

Conditions | refractive index | vapor or sublimation pressure [kPa]
[3], 334.98 K | – | 18.8 ± 0.4
[3], 344.45 K | – | 29.4 ± 0.4
[3], 351.18 K | – | 39.5 ± 0.4
[3], 354.1 K | – | 44.7 ± 0.4
[3], 356.81 K | – | 50.1 ± 0.4
[3], 358.12 K | – | 52.8 ± 0.4
[3], 359.14 K | – | 55 ± 0.4
[3], 361.21 K | – | 59.7 ± 0.4
[3], 363.43 K | – | 65.2 ± 0.4
[3], 365.23 K | – | 69.8 ± 0.4
[3], 367.1 K | – | 75 ± 0.5
[3], 368.88 K | – | 80.1 ± 0.5
[3], 371.04 K | – | 86.7 ± 0.5
[3], 375.78 K | – | 102.7 ± 0.5
[4], 298.15 K | 1.40248 ± 0.00037 | –
